Laboratory results published in patent publication US20110104159A1, “COMPOSITIONS AND METHODS FOR TREATING, CONTROLLING, REDUCING, AMELIORATING, OR PREVENTING ALLERGY” (priority 2006, published 2011).
Where “and” joins values, the source holds several entries; their conditions need not be identical. Equal values may be shown once.

Tests used:
[1] = conditions similar to the in vitro models used [28]; cited from earlier work
[2] = test system: rabbit paracentesis model; assay: Clinical evaluation by slit lamp (clinical score), rabbit paracentesis model; type: in vivo; set-up: key to Clinical Score −180 min / Clinical Score −5 min / Clinical Score +115 min: 0: normal; 1: discrete dilatation of iris and conjunctival vessels; 2: moderate dilatation of iris and conjunctival vessels; 3: intense iridal hyperemia with flare in the anterior chamber; 4: intense iridal hyperemia with flare in the anterior chamber and presence of fibrinous exudates; settings: for Clinical Score −5 min: 5 min before first paracentesis; for Clinical Score −5 min / Clinical Score +115 min / Clinical Score −180 min: individual eye, scale 0-4; for Clinical Score +115 min: 5 min before second paracentesis; for Clinical Score −180 min: basal
[3] = test system: murine thymocyte line S49; settings: murine thymocyte line S49 [26]; cited from earlier work
human eosinophils = assay: Ionomycin-induced IL-8 secretion in human eosinophils (ELISA); type: cell-based; settings: Eosinophil, compound 45 min before ionomycin, supernatant after 18 h, read-out: IC50, IL-8 release induced by ionomycin in eosinophils
Experimental: After 18 h stimulation at 37° C. in a 5% CO2 atmosphere, Interleukin-8 (IL-8) was measured in supernatants obtained from […] with a commercial ELISA kit from R&D Systems. The threshold sensitivity was 5 pg/ml and the inter- and intra-assay variations were less than 5%. The supernatants obtained from HMC-1 cells were aliquoted in duplicates for interleukin-6 (IL-6), IL-8, chemokine (C-C motif) ligand 5 (CCL5)/regulated upon activation, normal T-cell expressed and secreted (RANTES) and tumor necrosis factor-α (TNF-α) analysis using a high-throughput multiplex Luminex technology (Luminex 200 System; Luminex, Austin, Tx, USA) and Beadview software version 1.0 (Upstate Cell Signaling Solutions, Temecula, Calif.). Standard curves for known concentrations of recombinant human cytokines were used to convert median fluorescence intensities to cytokine concentrations in pg/ml. Only the linear portions of the standard curves were used to quantify cytokine concentrations, and in instances where the fluorescence reading exceeded the linear range of the standard curve, an appropriate dilution was performed to ensure that the concentration was in the linear portion of the curve.

[4] = test system: rabbit paracentesis model; assay: Pupillary diameter measurement, rabbit paracentesis model; type: in vivo; settings: for Pupillary diameter T2: −5 min: 5 min before first paracentesis; for Pupillary diameter T2: −5 min / Pupillary diameter T3: +115 min / Pupillary diameter Δ(T3 − T1) / Pupillary diameter T1: −180 min: individual eye, listed as BOL; for Pupillary diameter T3: +115 min: 5 min before second paracentesis; for Pupillary diameter Δ(T3 − T1): +115 min minus −180 min; for Pupillary diameter T1: −180 min: basal; for Mean (mm) Δ(T3 − T1) of pupillary diameter: group mean, n=8 eyes
Experimental: Each rabbit was placed in a restraint device and tagged with the alphanumeric code. The formulations were instilled (50 μl) into the conjunctival sac of both eyes 180, 120, 90 and 30 min before the first paracentesis; then 15, 30, 90 min after the first paracentesis. To perform the first paracentesis the animals were anaesthetized by intravenous injection of 5 mg/kg Zoletil® (Virbac; 2.5 mg/kg tiletamine HCl and 2.5 mg/kg zolazepam HCl) and one drop of local anesthetic (Novesina®, Novartis) was administered to the eye. Anterior chamber paracentesis was performed with a 26 G needle attached to a tuberculin syringe; the needle was introduced into the anterior chamber through the cornea, taking care not to damage the tissues. Two hours after the first paracentesis, the animals were sacrificed with 0.4 ml Tanax® (Intervet International B.V.) and the second paracentesis was performed. About 100 μl of aqueous humor were removed at the second paracentesis. Aqueous humor was immediately split in four aliquots and stored at −80° C. until analysis. Then both eyes were enucleated and the iris-ciliary body was carefully excised, placed in polypropylene tubes, and stored at −80° C. until analysis.
The pupillary diameter of both eyes was measured with a Castroviejo caliper 180 min and 5 min before the first paracentesis and 5 min before the second paracentesis.

ICAM-1 = assay: IL-4 and TNF-α-induced ICAM-1 expression in HConEpiC cell lysates (Luminex); type: cell-based, human; settings: all doses 10-1000 nM, 24 h
Experimental: Primary human conjunctival epithelial cells (HConEpiC) were seeded in two 24-well plates in EpiLife medium+1% Human Corneal Growth Supplement (HCGS; contains bovine pituitary extract, bovine insulin, hydrocortisone, bovine transferrin and mouse epidermal growth factor) at 2×10^4 cells/well. When the cells were confluent (4-5 days after seeding), they were incubated in EpiLife GF medium without glucocorticoids (EpiLife basic medium supplemented with 50 μg/ml bovine pituitary extract, 5 μg/ml bovine insulin and 5 ng/ml mouse epidermal growth factor) for 18 h. […] Culture medium was collected. Cytokine analysis was performed on the culture medium using 2 separate cytokine/chemokine Luminex kits (Kit 1: G-CSF, GM-CSF, IL-6, IL-8, IP-10, MCP-1, RANTES; Kit 2: eotaxin-3, CTACK). ICAM-1 expression was determined in cell lysates using a Luminex kit.
Median fluorescence intensity (MFI) was used to obtain the concentration of each cytokine and ICAM-1 in pg/ml based on the standard curve of each cytokine assayed by Luminex using the StatLIA software. ICAM-1 expression was expressed as pg/mg protein. All data were expressed as mean±SEM. Statistical analysis was performed using a two-way ANOVA-Contrast test with Factor 1 being drug and Factor 2 being dose (JMP 8 software, SAS Institute, Cary, N.C.). […] Data were analyzed either directly or after Box-Cox transformations (9, 10).

## Cc1ccc2c(NC[C@](O)(CC(C)(C)c3cc(F)cc4c3OCC4)C(F)(F)F)cccc2n1 [BOL-303242-X, (R)-1,1,1-Trifluoro-4-(5-fluoro-2,3-dihydrobenzofuran-7-yl)-4-methyl-2-{[(2-methyl-5-quinolyl)amino]methyl}pentan-2-ol]
[1]
  Stability of the compound: stable
[2]; 0.1% topical
  Clinical Score −5 min: 0
  Clinical Score −180 min: 0
[2]; 0.1% topical, listed as BOL
  Clinical Score +115 min: 2 (6×) and 3 (2×)
[2]; 0.1% topical, +115 min, 8 eyes
  Percentage of eyes with clinical score 2: 75%
  Percentage of eyes with clinical score 3: 25%
[2]; 0.1% topical, −5 min, 8 eyes
  Percentage of eyes with clinical score 0: 100%
[2]; 0.1% topical, −180 min, 8 eyes
  Percentage of eyes with clinical score 0: 100%
[2]; 0.5% topical
  Clinical Score −5 min: 0
  Clinical Score −180 min: 0
[2]; 0.5% topical, listed as BOL
  Clinical Score +115 min: 2 (5×) and 1 (3×)
[2]; 0.5% topical, +115 min, 8 eyes
  Percentage of eyes with clinical score 1: 37.5%
  Percentage of eyes with clinical score 2: 62.5%
[2]; 0.5% topical, −5 min, 8 eyes
  Percentage of eyes with clinical score 0: 100%
[2]; 0.5% topical, −180 min, 8 eyes
  Percentage of eyes with clinical score 0: 100%
[2]; 1% topical
  Clinical Score −5 min: 0
  Clinical Score +115 min: 2
  Clinical Score −180 min: 0
[2]; 1% topical, +115 min, 8 eyes
  Percentage of eyes with clinical score 2: 100%
[2]; 1% topical, −5 min, 8 eyes
  Percentage of eyes with clinical score 0: 100%
[2]; 1% topical, −180 min, 8 eyes
  Percentage of eyes with clinical score 0: 100%
[3]
  Induction of apoptosis in thymocytes: does not induce apoptosis
Human eosinophils
  IC50: 10.7 nM
[4]; 0.1% topical
  Pupillary diameter T2: −5 min: 6.5 mm (3×) and 7.0 mm (4×) and 7.5 mm
  Pupillary diameter T3: +115 min: 5.0 mm (2×) and 6.0 mm (3×) and 6.5 mm and 5.5 mm (2×)
  Pupillary diameter Δ(T3 − T1): −1.5 mm (4×) and −0.5 mm (2×) and −1.0 mm (2×)
  Pupillary diameter T1: −180 min: 6.5 mm (4×) and 7.0 mm (3×) and 7.5 mm
[4]; 0.5% topical
  Pupillary diameter T2: −5 min: 8.0 mm (3×) and 7.0 mm (4×) and 7.5 mm
  Pupillary diameter T3: +115 min: 6.5 mm (4×) and 6.0 mm (2×) and 7.0 mm (2×)
  Pupillary diameter Δ(T3 − T1): −1.5 mm (2×) and −0.5 mm (2×) and −1.0 mm (4×)
  Pupillary diameter T1: −180 min: 8.0 mm (3×) and 7.0 mm (3×) and 7.5 mm (2×)
  Mean (mm) Δ(T3 − T1) of pupillary diameter: −1.0 mm
[4]; 1% topical
  Pupillary diameter T2: −5 min: 6.0 mm (2×) and 6.5 mm (4×) and 7.0 mm (2×)
  Pupillary diameter T3: +115 min: 5.5 mm (2×) and 5.0 mm (4×) and 6.0 mm (2×)
  Pupillary diameter Δ(T3 − T1): −0.5 mm (3×) and −1.5 mm (2×) and −1.0 mm (3×)
  Pupillary diameter T1: −180 min: 6.0 mm (3×) and 6.5 mm (5×)
  Mean (mm) Δ(T3 − T1) of pupillary diameter: −0.9 mm
ICAM-1
  IL-4 plus TNF-α-induced ICAM-1 expression in cell lysates: significantly decreased
